The text below walks through data of PMC9296036, “A peptide interfering with the dimerization of oncogenic KITENIN protein and its stability suppresses colorectal tumour progression” (Clinical and Translational Medicine, 2022).

Ends that are not written are not given here.

In this experiment the target is T1, KITENIN (Mus musculus, UniProt Q80Z96).
T1 construct: decreased endogenous KITENIN protein levels in non‐transfected HCT116 and CT‐26 cells; endogenous in cells; host or cells: CT-26
T1 sequence (Q80Z96 1-526): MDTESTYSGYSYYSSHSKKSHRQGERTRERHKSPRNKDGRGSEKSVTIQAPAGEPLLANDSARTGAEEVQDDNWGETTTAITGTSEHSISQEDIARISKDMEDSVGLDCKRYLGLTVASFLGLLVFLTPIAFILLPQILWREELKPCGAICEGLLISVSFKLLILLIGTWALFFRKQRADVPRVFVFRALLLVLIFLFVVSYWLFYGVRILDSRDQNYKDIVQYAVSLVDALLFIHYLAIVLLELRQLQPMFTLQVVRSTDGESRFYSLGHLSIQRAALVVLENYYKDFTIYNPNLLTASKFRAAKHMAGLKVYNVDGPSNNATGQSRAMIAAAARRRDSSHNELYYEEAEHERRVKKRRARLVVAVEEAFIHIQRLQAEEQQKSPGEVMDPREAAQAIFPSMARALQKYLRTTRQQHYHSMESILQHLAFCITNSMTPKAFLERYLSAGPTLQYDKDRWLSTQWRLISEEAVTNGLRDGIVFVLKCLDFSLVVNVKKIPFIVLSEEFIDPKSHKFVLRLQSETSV
Put plainly: Endogenous KITENIN protein level in CT-26 cells (immunoblot). In kind it is cell-based. The note with it: non-transfected CT-26 cells, KDIP 1 μM, 12 h. From the text: Antibodies against the following proteins were obtained from the indicated suppliers: Na^+/K^+ ATPase, GFP and tubulin (Santa Cruz Biotechnology); c‐Jun, p‐c‐Jun, ERK, p‐ERK, c‐MET, p‐c‐MET and GST (Cell Signaling Technology); V5, Myc (MBL); HA and β‐actin (Sigma); KITENIN (Atlas); His and RACK1, LC3, p62, Myo10, and eukaryotic elongation factor 2 (eEF2) (Abcam). They were used with appropriate secondary antibodies (Thermo). For transient transfection analyses, Caco2, HCT116 and 293T cells were transfected with various plasmids and harvested for immunoblot analysis 48 h after transfection. For most assays using stable cell lines, mixed polyclonal cells were used to exclude clonal variation. […]
FIGURE 2 KAI1 C‐terminal interacting tetraspanin (KITENIN) dimerization‐interfering peptide (KDIP) suppresses KITENIN‐induced enhanced cell invasion through the inhibition of the homodimerization of KITENIN. […] After 48 h of treatment, KITENIN transcripts in cells were analysed by the 2^−ΔΔ ^CT method using Q‐PCR. […] Caco2 cells were co‐transfected with KITENIN‐V5/Myc and treated with or without KDIP or scrambled peptide (scr) and were immunoprecipitated with anti‐V5 antibody and detected by indicated antibodies. Numerals indicated a quantification of the MYC bands normalized to the corresponding V5 bands (left panel). […] Numerals indicated a quantification of the bands observed (left panel). […]
Background: A western blot detects proteins with antibodies after separation by electrophoresis.

Regarding YARVRRRGPRRWRLVSDEAV [KDIP], the “endogenous KITENIN protein level (in words)” value was “decreased”.
